Here are results for 3 compounds from publication PMC3605045, “GH1-family 6-P-β-glucosidases from human microbiome lactic acid bacteria” (Acta Crystallographica Section D: Biological Crystallography, 2013).

One experiment deals with T1, LpPgb1 (Lactiplantibacillus plantarum, UniProt F9UU25).
T1 construct: gene pbg1; full length Met1-Glu478, 478 residues, ~55 kDa, homodimer; His6 cut by TEV, SNA- left at N-terminus; E. coli BL21 (DE3) Magic, pMCSG7
Kind of experiment: G6PDH-coupled NADPH absorbance assay ([…] nm). The format is biochemical. The note with it: 0.1 M HEPES-NaOH pH 8.0, 2 mM NADP+, 298 K; native enzyme 0.02 µM.

A further experiment concerns the target T2, SmBgl (Streptococcus mutans, UniProt Q8DT00).
T2 construct: gene bgl; full length, 477 residues, ~55 kDa, homodimer; His6 cut by TEV, SNA- left at N-terminus; E. coli BL21 (DE3) Magic, pMCSG7; SeMet-labelled protein in kinetic assays
Kind of experiment: X-ray crystal structure, […] Å. In kind it is binding. The note with it: crystallised with 5 mM 6'-P-gentiobiose; product in phosphate and -1 subsites.

Consider `O=P(O)(O)OC[C@H]1O[C@@H](O[C@H]2[C@H](O)[C@@H](O)C(O)O[C@@H]2CO)[C@H](O)[C@@H](O)[C@@H]1O` (stereo partly drawn) [6′-P-cellobiose], for which the “G6PDH-coupled NADPH absorbance assay (340 nm)” value on LpPgb1 was “Both enzymes showed hydrolytic activity towards all of these substrates”.

In the case of `O=P(O)(O)OC[C@H]1O[C@@H](OC[C@H]2OC(O)[C@H](O)[C@@H](O)[C@@H]2O)[C@H](O)[C@@H](O)[C@@H]1O` (stereo partly drawn) [6′-P-gentiobiose], the “G6PDH-coupled NADPH absorbance assay (340 nm)” value on LpPgb1 is recorded as “Both enzymes showed hydrolytic activity towards all of these substrates”.

Consider `O=P(O)(O)OC[C@H]1OC(O)[C@H](O)[C@@H](O)[C@@H]1O` (stereo partly drawn) [BG6, 6-P-β-glucose], for which the “X-ray crystal structure, 1.48 Å” value at SmBgl is “two BG6 ligands”.
